Source: US4160829A, “Antibacterial 1,2,4-oxadiazolylacetamido cephalosporins” (Gist-Brocades N.V., priority 1972, dated 1979)
Values after ≈ are worked out from the molar mass of the structure shown. Read-outs that look alike come from different tables or passages of the source.

Assays:
Bac.Subt.ATCC 6633 = assay: agar serial dilution test; assay type: cell-based, Bacillus subtilis; settings: agar serial dilution, 24 hours, 37° C.
Staph.aureus A 321 = assay: agar serial dilution test; assay type: cell-based, Staphylococcus aureus; settings: agar serial dilution, 24 hours, 37° C.
Staph.aureus A 2000 [1] = assay: agar serial dilution test; assay type: cell-based, Staphylococcus aureus; settings: agar serial dilution, 24 hours, 37° C.
Staph.aureus A 2001 [2] = assay: agar serial dilution test; assay type: cell-based, Staphylococcus aureus; settings: agar serial dilution, 24 hours, 37° C.
Strep. faec. L 80 = assay: agar serial dilution test; assay type: cell-based, Streptococcus faecalis; settings: agar serial dilution, 24 hours, 37° C.
Dipl.pneum. L 54 = assay: agar serial dilution test; assay type: cell-based, Diplococcus pneumoniae; settings: Streptococcus pneumoniae; agar serial dilution, 24 hours, 37° C.; read-out: minimal inhibitory concentration (MIC)
Past.multo. A 723 = assay: agar serial dilution test; assay type: cell-based, Pasteurella multocida; settings: agar serial dilution, 24 hours, 37° C.
Kleb.pneum. A 809 = assay: agar serial dilution test; assay type: cell-based, Klebsiella pneumoniae; settings: Klebsiella pneumoniae; agar serial dilution, 24 hours, 37° C.; read-out: minimal inhibitory concentration (MIC)
Salm.dubl. P 43 = assay: agar serial dilution test; assay type: cell-based, Salmonella dublin; settings: agar serial dilution, 24 hours, 37° C.
Esch.coli U 20 = assay: agar serial dilution test; assay type: cell-based, Escherichia coli; settings: Escherichia coli, U20; agar serial dilution, 24 hours, 37° C.; read-out: minimal inhibitory concentration (MIC)
Pseud.aerug. H 10 = assay: agar serial dilution test; assay type: cell-based; settings: agar serial dilution, 24 hours, 37° C.
Pseud.aerug. 2396 = assay: agar serial dilution test; assay type: cell-based; settings: agar serial dilution, 24 hours, 37° C.
[3] = test system: Pseud.aerug. Wyeth A 1058; assay: agar serial dilution test; assay type: cell-based; settings: agar serial dilution, 24 hours, 37° C.
Prot.rettg. A 821 = assay: agar serial dilution test; assay type: cell-based, Proteus rettgeri; settings: agar serial dilution, 24 hours, 37° C.
Prot.mirab. H 3 = assay: agar serial dilution test; assay type: cell-based, Proteus mirabilis; settings: Proteus mirabilis
Prot.mirab. L 93 = assay: agar serial dilution test; assay type: cell-based, Proteus mirabilis; settings: Proteus mirabilis; agar serial dilution, 24 hours, 37° C.; read-out: minimal inhibitory concentration (MIC)
Prot.mirab. A 1200 [4] = assay: agar serial dilution test; assay type: cell-based, Proteus mirabilis; settings: agar serial dilution, 24 hours, 37° C.
Prot.morg. 2241 = assay: agar serial dilution test; assay type: cell-based; settings: agar serial dilution, 24 hours, 37° C.
Strep.haem A 1088 = assay: agar serial dilution test; assay type: cell-based, Streptococcus haemolyticus; settings: Streptococcus, A1088, 24 hours, 37° C., read-out: minimal inhibitory concentration (MIC)
Bruc. Suis A 2126 = assay: agar serial dilution test; assay type: cell-based; settings: Brucella suis, 24 h, read-out: minimal inhibitory concentration (MIC)
Salm.typh. R 172 = assay: agar serial dilution test; assay type: cell-based; settings: 24 h, read-out: minimal inhibitory concentration (MIC)
Actinob.equ. T 3 = assay: agar serial dilution test; assay type: cell-based; settings: 24 hours, 37° C., read-out: minimal inhibitory concentration (MIC)
Staph.aureus A 355 [5] = assay: micro serial dilution test; assay type: cell-based, Staphylococcus aureus; settings: micro serial dilution (in brackets), about 18 hours, 30° C. or 37° C., penicillinase-producing strain
Staph.aureus A 2000 [6] = assay: micro serial dilution test; assay type: cell-based, Staphylococcus aureus; settings: micro serial dilution (in brackets), about 18 hours, 30° C. or 37° C.
Staph.aureus A 2001 [7] = assay: micro serial dilution test; assay type: cell-based, Staphylococcus aureus; settings: micro serial dilution (in brackets), about 18 hours, 30° C. or 37° C.
Prot.mirab. A 1200 [8] = assay: micro serial dilution test; assay type: cell-based; settings: Proteus mirabilis; micro serial dilution (in brackets), about 18 hours, 30° C. or 37° C.; read-out: minimal inhibitory concentration (MIC)
Haem.Suis A 2096 = assay: micro serial dilution test; assay type: cell-based; settings: micro serial dilution (in brackets), about 18 hours, 30° C. or 37° C.; read-out: minimal inhibitory concentration (MIC)
Sarc. lutea ATCC 9341 = assay: micro serial dilution test; assay type: cell-based; settings: Micrococcus luteus, ATCC9341; micro serial dilution (in brackets), about 18 hours, 30° C. or 37° C.; read-out: minimal inhibitory concentration (MIC)
[9] = test system: Klebsiella pneumoniae A 265; assay: protection test; assay type: in vivo; settings: i.p.
Proteus mirabilis A 1200 = assay: protection test; assay type: in vivo; settings: s.c.; for ED50: protection test
Proteus rettgeri A 821 = assay: protection test; assay type: in vivo; settings: s.c.
Staph.aureus A 355 [10] = assay: agar serial dilution test; settings: penicillinase-producing strain
Strep.haem. A 266 = assay: agar serial dilution test; assay type: cell-based, Streptococcus haemolyticus; settings: Streptococcus; agar serial dilution, 24 hours, 37° C.; read-out: minimal inhibitory concentration (MIC)
Bruc.melit. A 488 = assay: microbe, parasite or virus in culture; assay type: cell-based; settings: Brucella melitensis, 24 h, read-out: minimal inhibitory concentration (MIC)
Salm.typh. R 127 = assay: agar serial dilution test; assay type: cell-based; settings: 24 hours, 37° C.
Shig.equir. T 3 = assay: agar serial dilution test; assay type: cell-based; settings: 24 hours, 37° C.
Haem.infl. A 1030 = assay: micro serial dilution test; assay type: cell-based; settings: micro serial dilution (in brackets), about 18 hours, 30° C. or 37° C.
acute toxicity in mice = settings: mouse, in vivo, ip; mice (Swiss), one intraperitoneal administration
Protocol: (a) For sodium 7-[(3-methyl-1,2,4-oxadiazol-5-yl)-acetamido]-cephalosporanate (as prepared in Example 10), the acute toxicity was determined in mice (Swiss) with one intraperitoneal administration. The LD50 appeared to be >6000 mg/kg (Cephalotin-LD50 >6000 mg/kg).

[11] = test system: Staph. aureus pen.resistant; assay: protection test; assay type: in vivo; settings: Staphylococcus aureus, sc
Proteus rettgeri = assay: protection test; assay type: in vivo; settings: Providencia rettgeri, sc; protection test, s.c.; read-out: ED50
Klebsiella pneumoniae = assay: protection test; assay type: in vivo; settings: ip, protection test, i.p., read-out: ED50
Escherichia coli = assay: protection test; assay type: in vivo; settings: ip
in vivo = assay: in vivo; set-up: species or system rabbits; settings: rabbit, im, 50 mg/kg
Protocol: Blood levels of the above mentioned test compound and of cephalotin were determined after an intramuscular administration of 50 mg/kg of these compounds in an aqueous solution in rabbits. After half an hour for the compound of Example 10, a value of 38.3 μg/ml was found and for cephalotin 33.9 μg/ml. In urine, 35.9% of the administered compound of Example 10 was retrieved, while in the case of cephalotin 22.2% was retrieved within six hours.

[12] = read-out: minimal inhibitory concentration (MIC)

## Cn1nnnc1SCC1=C(C(=O)O)N2C(=O)[C@@H](NC(=O)Cc3nc(CC(=O)O)no3)[C@H]2SC1 [Compound F, disodium 7-[(3-carboxymethyl-1,2,4-oxadiazol-5-yl)-acetamido]-3[1-methyl-tetrazol-5-yl-mercaptomethyl] 3-cephem-4-carboxylate]
Bac.Subt.ATCC 6633; Bacillus subtilis, ATCC6633, 24 h, read-out: minimal inhibitory concentration (MIC)
  MIC: 1.5 µg/mL
Staph.aureus A 321; Staphylococcus aureus, A321, 24 h, read-out: minimal inhibitory concentration (MIC)
  MIC: 3 µg/mL
Staph.aureus A 2000 [1]; Staphylococcus aureus, A2000, 24 h, read-out: minimal inhibitory concentration (MIC)
  MIC: 6 µg/mL
Staph.aureus A 2001 [2]; Staphylococcus aureus, A2001, 24 h, read-out: minimal inhibitory concentration (MIC)
  MIC: 6 µg/mL
Strep. faec. L 80; Enterococcus faecalis, read-out: minimal inhibitory concentration (MIC)
  MIC: > 100 µg/mL
Dipl.pneum. L 54
  MIC: 1 µg/mL
Past.multo. A 723; Pasteurella multocida, read-out: minimal inhibitory concentration (MIC)
  MIC: 1 µg/mL
Kleb.pneum. A 809
  MIC: 0.5 µg/mL
Salm.dubl. P 43; Salmonella enterica, read-out: minimal inhibitory concentration (MIC)
  MIC: 0.5 µg/mL
Esch.coli U 20
  MIC: 0.75 µg/mL
Pseud.aerug. H 10; [12]
  MIC: 100 µg/mL
Pseud.aerug. 2396; [12]
  MIC: 100 µg/mL
[3]; [12]
  MIC: 100 µg/mL
Prot.rettg. A 821; Providencia rettgeri, 24 h, read-out: minimal inhibitory concentration (MIC)
  MIC: 0.25 µg/mL
Prot.mirab. H 3; agar serial dilution, 24 hours, 37° C., read-out: minimal inhibitory concentration (MIC)
  MIC: 1.5 µg/mL
Prot.mirab. L 93
  MIC: 1.5 µg/mL
Prot.mirab. A 1200 [4]; Proteus mirabilis, 24 h, read-out: minimal inhibitory concentration (MIC)
  MIC: 3 µg/mL
Prot.morg. 2241; 24 h, read-out: minimal inhibitory concentration (MIC)
  MIC: 25 µg/mL
Strep.haem A 1088
  MIC: 3 µg/mL
Bruc. Suis A 2126
  MIC: 1 µg/mL
Salm.typh. R 172
  MIC: 0.75 µg/mL
Actinob.equ. T 3
  MIC: 0.5 µg/mL
Staph.aureus A 355 [5]; Staphylococcus aureus, A355, read-out: minimal inhibitory concentration (MIC)
  MIC: 6 µg/mL
Staph.aureus A 2000 [6]; Staphylococcus aureus, A2000, 18 h, read-out: minimal inhibitory concentration (MIC)
  MIC: 4 µg/mL
Staph.aureus A 2001 [7]; Staphylococcus aureus, A2001, 18 h, read-out: minimal inhibitory concentration (MIC)
  MIC: 3.7 µg/mL
Prot.mirab. A 1200 [8]
  MIC: 1.2 µg/mL
Haem.Suis A 2096
  MIC: 0.23 µg/mL
Sarc. lutea ATCC 9341
  MIC: 3.7 µg/mL
[9]; Klebsiella pneumoniae, A265, ip, protection test
  ED50: 16 mg/kg
[9]; reference Cefalotin
  Potency ratio: 5,7
Proteus mirabilis A 1200; Proteus mirabilis, A1200, sc, read-out: ED50
  ED50: 2.2 mg/kg
Proteus mirabilis A 1200
  ED50: 1,35 mg/kg
Proteus mirabilis A 1200; reference Cefalotin
  Potency ratio: 6,9
Proteus mirabilis A 1200; reference Cefazolin
  Potency ratio: 6,5
Proteus rettgeri A 821; Providencia rettgeri, A821, sc, protection test
  ED50: 0.023 mg/kg
Proteus rettgeri A 821; reference Cefalotin
  Potency ratio: > 5
Staph.aureus A 355 [10]; Staphylococcus aureus, A355, 24 h, read-out: minimal inhibitory concentration (MIC), agar serial dilution, 24 hours, 37° C.
  MIC: 6 µg/mL

## CC(=O)OCC1=C(C(=O)O)N2C(=O)[C@@H](NC(=O)Cc3nc(C)no3)[C@H]2SC1 [Example 10, 7-[(3-methyl-1,2,4-oxadiazol-5-yl)-acetamido]-cephalosporanic acid]
Bac.Subt.ATCC 6633
  minimal inhibitory concentration (MIC): 0.25 µg/mL (≈ 0.631 µM)
Staph.aureus A 321
  minimal inhibitory concentration (MIC): 0.25 µg/mL (≈ 0.631 µM)
Staph.aureus A 2000 [1]
  minimal inhibitory concentration (MIC): 1 µg/mL (≈ 2.52 µM)
Staph.aureus A 2001 [2]
  minimal inhibitory concentration (MIC): 1 µg/mL (≈ 2.52 µM)
Strep.haem. A 266
  MIC: 0.03 µg/mL (≈ 0.0757 µM)
Strep. faec. L 80
  minimal inhibitory concentration (MIC): 50 µg/mL (≈ 126 µM)
Bruc.melit. A 488
  MIC: 6 µg/mL (≈ 15.1 µM)
Past.multo. A 723
  minimal inhibitory concentration (MIC): 1.5 µg/mL (≈ 3.78 µM)
Salm.dubl. P 43
  minimal inhibitory concentration (MIC): 3 µg/mL (≈ 7.57 µM)
Salm.typh. R 127
  minimal inhibitory concentration (MIC): 3 µg/mL (≈ 7.57 µM)
Esch.coli U 20
  MIC: 6 µg/mL (≈ 15.1 µM)
Shig.equir. T 3
  minimal inhibitory concentration (MIC): 3 µg/mL (≈ 7.57 µM)
Pseud.aerug. H 10
  minimal inhibitory concentration (MIC): > 100 µg/mL
Pseud.aerug. 2396
  minimal inhibitory concentration (MIC): > 100 µg/mL
[3]
  minimal inhibitory concentration (MIC): > 100 µg/mL
Prot.rettg. A 821
  minimal inhibitory concentration (MIC): 3 µg/mL (≈ 7.57 µM)
Prot.mirab. H 3; 24 h, read-out: minimal inhibitory concentration (MIC), agar serial dilution, 24 hours, 37° C.
  MIC: 12.5 µg/mL (≈ 31.5 µM)
Prot.mirab. L 93
  MIC: 1.5 µg/mL (≈ 3.78 µM)
Prot.mirab. A 1200 [4]
  minimal inhibitory concentration (MIC): 6 µg/mL (≈ 15.1 µM)
Prot.morg. 2241
  minimal inhibitory concentration (MIC): 50 µg/mL (≈ 126 µM)
Staph.aureus A 355 [5]
  minimal inhibitory concentration (MIC): 0.6 µg/mL (≈ 1.51 µM)
Staph.aureus A 2000 [6]
  minimal inhibitory concentration (MIC): 0.9 µg/mL (≈ 2.27 µM)
Staph.aureus A 2001 [7]
  minimal inhibitory concentration (MIC): 0.3 µg/mL (≈ 0.757 µM)
Haem.infl. A 1030
  minimal inhibitory concentration (MIC): 125 µg/mL (≈ 315 µM)
Acute toxicity in mice
  LD50: > 6000 mg/kg
[11]
  ED50: 31 mg/kg
Proteus rettgeri
  ED50: 1.25 mg/kg
Klebsiella pneumoniae
  ED50: 2.3 mg/kg
Escherichia coli
  ED50: 120 mg/kg
In vivo
  concentration at 0.5 h: 38300 ng/mL
Staph.aureus A 355 [10]; agar serial dilution, 24 hours, 37° C.
  minimal inhibitory concentration (MIC): 1 µg/mL (≈ 2.52 µM)

## O=C(O)Cc1nc(Cc2ccccc2)no1 [Example 12A, 3-benzyl-1,2,4-oxadiazol-5-yl-acetic acid]
Antiphlogistic activity
  antiphlogistic activity: antiphlogistic activity
